Test results taken from patent US11066406B2, “Small molecule inhibitors of the JAK family of kinases” (Janssen Pharmaceutica NV, priority 2018, dated 2021).

What was measured:
[1] = Hygroscopicity (GVS) and static storage of embodiment 11; format: physicochemical
Description: In a hygroscopicity study of embodiment 11, it was found it to be only slightly hygroscopic, with a mass change of 0.66% between 0-90% RH in the GVS analysis as shown in FIG. 18. […] Variable temperature (VT)-XRPD was performed in order to assess the stability of embodiment 11 upon heating. […] The diffractograms of embodiment 11 before and after the VT-XRPD experiment, along with the diffractogram for embodiment 6 are shown in FIG. 24. Embodiment 11 was also subjected to static storage analysis at 40° C./75% RH for up to 48 days. The samples were analyzed by XRPD and Karl Fisher (KF) after 2 days, 5 days and 48 days.

[2] = Physical stability of solid forms (accelerated aging conditions / ambient); format: physicochemical; details: 2 days at 40° C./70% RH, HT-XRPD
Description: Long term slurry experiments were performed by suspending compound embodiment 1s in twenty neat solvents and stirring at room temperature for two weeks and at 50° C. for one week. Upon completion of the equilibration time, the residual solids were separated from the mother liquors. The solids were dried under ambient conditions and dried under vacuum (5 mBar) before being analyzed by HT-XRPD. Subsequently, the solids were exposed to accelerated aging conditions (40° C./70% relative humidity) for two days and again analyzed by HT-XRPD.
The mother liquors of the solvent equilibration experiments performed at 50° C. were filtered at 50° C. to remove any particulate matter. The suspensions at 50° C. were filtered using 0.2 μm PTFE filters, and the solutions were placed at 5° C. and aged for 72 hours. When solids had precipitated during aging these solids were separated from the liquid, dried under ambient conditions and under vacuum, and analyzed by HT-XRPD. The remaining mother liquors were allowed to slowly evaporate and the remaining solids were analyzed by HT-XRPD. The samples in which no precipitation occurred were placed under vacuum and the dried solids were analyzed by HT-XRPD. All the solids were then exposed to AAC (2 days at 40° C./70% RH) and re-analyzed by HT-XRPD.
The cooling/evaporative crystallization experiments at μL scale were performed in a 96-well plate, using 12 neat solvents and 12 solvent mixtures and applying four temperature profiles. In each well approximately 4 mg of embodiment 1s was solid dosed. Subsequently, the crystallization solvents (80 μL) and solvent mixtures were added to reach a concentration of 50 mg/mL, and the plate, with each well individually sealed, to subsequently undergo one of the four temperature profiles. Upon completion of the temperature profile the solvents were allowed to evaporate at low ambient pressure (24 hours) and the remaining solids were analyzed by HT-XRPD before and after exposure to AAC for 2 days (40° C./70% RH).
The cooling crystallization experiments with hot filtration were performed from supersaturated solutions of compound Ex. 1 prepared at 50° C. in different solvent mixtures. The hot filtrated solutions underwent a 48-hour cooling profile. The vials in which solids had precipitated after the temperature profile were centrifuged and the solids were separated from the liquid and analyzed by HT-XRPD (after drying under vacuum). If no solids had precipitated the solutions were evaporated under vacuum and the solids analyzed by HT-XRPD. All the solids were exposed to AAC (2 days at 40° C./70% RH) and re-analyzed by HT-XRPD. […] In three experiments, an amorphous residue was recovered which after AAC crystallized to a mixture of members of embodiment 1 (1s or 1a) and 3 (3e) or became deliquescent. […]

SMILES | physical stability by XRPD on static storage ([1]; 40° C./75% RH for up to 48 days) | mass change in GVS analysis ([1]; between 0-90% RH) [%] | total water uptake (Karl Fisher) ([1]; static storage 40° C./75% RH, after 48 days) [%] | physical stability after accelerated aging conditions (AAC) [2]
CC(C)(O)CNC(=O)Cc1nc2cnc3[nH]ccc3c2n1[C@H]1CC[C@H](CC#N)CC1 [embodiment 11, 2-(1-((1r,4r)-4-(Cyanomethyl)cyclohexyl)-1,6-dihydroimidazo[4,5-d]pyrrolo[2,3-b]pyridin-2-yl)-N-(2-hydroxy-2-methylpropyl)acetamide] | remained unchanged | 0.66 | 1.2 | 
CC(C)(O)CNC(=O)Cc1nc2cnc3[nH]ccc3c2n1[C@H]1CC[C@H](CC#N)CC1 [embodiment 2, 2-(1-((1r,4r)-4-(Cyanomethyl)cyclohexyl)-1,6-dihydroimidazo[4,5-d]pyrrolo[2,3-b]pyridin-2-yl)-N-(2-hydroxy-2-methylpropyl)acetamide] |  |  |  | converted to embodiment 3e
CC(C)(O)CNC(=O)Cc1nc2cnc3[nH]ccc3c2n1[C@H]1CC[C@H](CC#N)CC1 [embodiment 6, 2-(1-((1r,4r)-4-(Cyanomethyl)cyclohexyl)-1,6-dihydroimidazo[4,5-d]pyrrolo[2,3-b]pyridin-2-yl)-N-(2-hydroxy-2-methylpropyl)acetamide] |  |  |  | stable solid form
CC(C)(O)CNC(=O)Cc1nc2cnc3[nH]ccc3c2n1[C@H]1CC[C@H](CC#N)CC1 [embodiment 7, 2-(1-((1r,4r)-4-(Cyanomethyl)cyclohexyl)-1,6-dihydroimidazo[4,5-d]pyrrolo[2,3-b]pyridin-2-yl)-N-(2-hydroxy-2-methylpropyl)acetamide] |  |  |  | physically stable
CC(C)(O)CNC(=O)Cc1nc2cnc3[nH]ccc3c2n1[C@H]1CC[C@H](CC#N)CC1 [embodiment 5, 2-(1-((1r,4r)-4-(Cyanomethyl)cyclohexyl)-1,6-dihydroimidazo[4,5-d]pyrrolo[2,3-b]pyridin-2-yl)-N-(2-hydroxy-2-methylpropyl)acetamide] |  |  |  | physically unstable
